Measured values reported in the kinase profiling compilation of Christmann-Franck et al. (2016).

Assays:
Test in all cases: radiometric filter-binding kinase assay, Kinase HotSpot
Details in all cases: compound 0.5 µM; ATP 10 µM
[1] = target: ACVR1B (human) (UniProt P36896)
[2] = target: AKT3 (human) (UniProt Q9Y243)
[3] = target: AURKC (human) (UniProt Q9UQB9)
[4] = target: AXL (human) (UniProt P30530)
[5] = target: BTK (human) (UniProt Q06187)
[6] = target: CAMK1D (human) (UniProt Q8IU85)
[7] = target: CAMK2A (human) (UniProt Q9UQM7)
[8] = target: CAMK2D (human) (UniProt Q13557)
[9] = target: CDK2 CCNA2 (human) (UniProt P24941+P20248)
[10] = target: CDK6 CCND1 (human) (UniProt Q00534+P24385)
[11] = target: CSK (human) (UniProt P41240)
[12] = target: CSNK2A1 (human) (UniProt P68400)
[13] = target: DAPK1 (human) (UniProt P53355)
Chain of DAPK1 (human) (P53355 whole entry, looked up): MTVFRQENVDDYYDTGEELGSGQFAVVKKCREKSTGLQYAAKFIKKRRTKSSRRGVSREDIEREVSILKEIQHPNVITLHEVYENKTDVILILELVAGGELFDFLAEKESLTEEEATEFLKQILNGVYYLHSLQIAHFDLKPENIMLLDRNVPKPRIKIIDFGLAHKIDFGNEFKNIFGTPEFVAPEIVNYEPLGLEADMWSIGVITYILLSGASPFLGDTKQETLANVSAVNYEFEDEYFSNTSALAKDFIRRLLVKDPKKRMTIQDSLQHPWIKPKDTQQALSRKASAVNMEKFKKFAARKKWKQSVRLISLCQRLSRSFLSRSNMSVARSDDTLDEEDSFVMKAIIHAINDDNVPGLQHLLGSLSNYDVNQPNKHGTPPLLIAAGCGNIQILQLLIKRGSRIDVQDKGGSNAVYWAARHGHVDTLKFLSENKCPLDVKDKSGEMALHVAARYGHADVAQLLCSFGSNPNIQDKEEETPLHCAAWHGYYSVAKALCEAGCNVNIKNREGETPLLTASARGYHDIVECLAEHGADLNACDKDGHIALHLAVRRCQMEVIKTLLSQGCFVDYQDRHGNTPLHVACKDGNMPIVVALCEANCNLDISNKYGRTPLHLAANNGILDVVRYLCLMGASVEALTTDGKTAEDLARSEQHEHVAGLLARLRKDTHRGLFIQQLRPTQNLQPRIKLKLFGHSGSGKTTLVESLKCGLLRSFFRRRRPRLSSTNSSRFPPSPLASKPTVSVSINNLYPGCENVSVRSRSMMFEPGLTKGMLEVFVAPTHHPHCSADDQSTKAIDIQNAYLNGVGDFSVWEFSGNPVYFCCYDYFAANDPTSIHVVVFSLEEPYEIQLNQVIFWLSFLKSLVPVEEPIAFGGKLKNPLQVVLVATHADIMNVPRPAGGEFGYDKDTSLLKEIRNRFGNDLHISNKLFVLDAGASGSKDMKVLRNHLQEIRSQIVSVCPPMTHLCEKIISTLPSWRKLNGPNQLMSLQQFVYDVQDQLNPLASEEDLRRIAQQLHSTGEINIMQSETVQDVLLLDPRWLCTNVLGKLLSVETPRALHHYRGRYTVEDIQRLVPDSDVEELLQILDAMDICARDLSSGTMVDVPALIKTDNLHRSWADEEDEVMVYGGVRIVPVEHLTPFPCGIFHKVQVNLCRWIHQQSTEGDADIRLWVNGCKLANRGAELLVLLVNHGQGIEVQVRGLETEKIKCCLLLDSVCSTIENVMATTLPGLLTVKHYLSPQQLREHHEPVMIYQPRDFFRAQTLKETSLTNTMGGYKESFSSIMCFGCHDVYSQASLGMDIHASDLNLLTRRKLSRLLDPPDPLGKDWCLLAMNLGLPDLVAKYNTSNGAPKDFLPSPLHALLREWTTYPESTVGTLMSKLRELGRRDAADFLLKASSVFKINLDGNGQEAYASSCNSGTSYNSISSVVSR

[14] = target: DYRK3 (human) (UniProt O43781)
[15] = target: EPHA4 (human) (UniProt P54764)
[16] = target: FER (human) (UniProt P16591)
Chain of FER (human) (P16591 whole entry, looked up): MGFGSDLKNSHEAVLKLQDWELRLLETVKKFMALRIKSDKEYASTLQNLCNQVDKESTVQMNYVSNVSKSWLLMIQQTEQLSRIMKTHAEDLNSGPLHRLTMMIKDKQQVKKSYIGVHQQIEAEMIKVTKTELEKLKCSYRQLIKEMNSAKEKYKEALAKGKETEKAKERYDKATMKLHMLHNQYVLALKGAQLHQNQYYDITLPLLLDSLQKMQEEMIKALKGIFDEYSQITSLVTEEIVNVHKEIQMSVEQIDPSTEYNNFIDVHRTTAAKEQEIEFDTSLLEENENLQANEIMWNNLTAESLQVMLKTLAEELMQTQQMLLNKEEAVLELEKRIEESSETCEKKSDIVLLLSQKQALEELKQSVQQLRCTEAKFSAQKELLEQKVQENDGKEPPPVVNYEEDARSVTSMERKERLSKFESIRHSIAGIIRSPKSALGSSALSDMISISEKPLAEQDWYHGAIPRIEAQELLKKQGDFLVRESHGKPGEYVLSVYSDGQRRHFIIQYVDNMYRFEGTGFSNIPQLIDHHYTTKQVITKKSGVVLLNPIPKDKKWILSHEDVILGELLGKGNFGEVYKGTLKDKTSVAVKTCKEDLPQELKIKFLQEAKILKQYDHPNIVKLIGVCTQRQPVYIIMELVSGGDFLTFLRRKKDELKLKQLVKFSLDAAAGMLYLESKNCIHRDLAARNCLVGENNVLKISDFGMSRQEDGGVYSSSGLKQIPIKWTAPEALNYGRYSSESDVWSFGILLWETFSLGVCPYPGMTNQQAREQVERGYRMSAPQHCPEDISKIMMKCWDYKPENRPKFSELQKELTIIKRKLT

[17] = target: INSR (human) (UniProt P06213)
[18] = target: LCK (human) (UniProt P06239)
[19] = target: MAP3K14 (human) (UniProt Q99558)
[20] = target: MAP3K3 (human) (UniProt Q99759)
[21] = target: MAP3K5 (human) (UniProt Q99683)
[22] = target: MAP3K8 (human) (UniProt P41279)
Chain of MAP3K8 (human) (P41279 whole entry, looked up): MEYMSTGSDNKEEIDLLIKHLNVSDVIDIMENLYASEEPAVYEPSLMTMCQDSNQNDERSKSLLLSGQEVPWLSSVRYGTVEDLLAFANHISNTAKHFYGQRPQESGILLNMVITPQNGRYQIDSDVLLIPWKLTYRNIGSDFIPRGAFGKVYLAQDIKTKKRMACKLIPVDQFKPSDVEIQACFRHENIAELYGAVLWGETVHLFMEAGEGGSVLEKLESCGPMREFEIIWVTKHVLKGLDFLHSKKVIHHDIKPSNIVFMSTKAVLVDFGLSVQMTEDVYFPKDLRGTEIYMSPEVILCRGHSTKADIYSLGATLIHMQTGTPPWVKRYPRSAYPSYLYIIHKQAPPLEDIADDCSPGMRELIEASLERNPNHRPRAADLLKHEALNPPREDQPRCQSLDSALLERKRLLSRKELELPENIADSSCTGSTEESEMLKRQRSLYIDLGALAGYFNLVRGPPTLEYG

[23] = target: MAP4K2 (human) (UniProt Q12851)
[24] = target: MAPK11 (human) (UniProt Q15759)
[25] = target: MAPK8 (human) (UniProt P45983)
[26] = target: NEK11 (human) (UniProt Q8NG66)
[27] = target: PAK6 (human) (UniProt Q9NQU5)
[28] = target: PBK (human) (UniProt Q96KB5)
Chain of PBK (human) (Q96KB5 whole entry, looked up): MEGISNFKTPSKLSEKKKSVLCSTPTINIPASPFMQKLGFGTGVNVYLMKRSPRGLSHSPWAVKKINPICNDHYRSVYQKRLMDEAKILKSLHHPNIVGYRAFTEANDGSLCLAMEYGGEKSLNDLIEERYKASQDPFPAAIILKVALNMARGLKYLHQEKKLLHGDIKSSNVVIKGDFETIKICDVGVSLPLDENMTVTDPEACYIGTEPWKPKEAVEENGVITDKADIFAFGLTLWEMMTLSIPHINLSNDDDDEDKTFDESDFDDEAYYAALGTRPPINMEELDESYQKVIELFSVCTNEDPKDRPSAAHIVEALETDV

[29] = target: PDGFRB (human) (UniProt P09619)
[30] = target: PRKD1 (human) (UniProt Q15139)
[31] = target: PRKD3 (human) (UniProt O94806)
[32] = target: PTK2B (human) (UniProt Q14289)
Chain of PTK2B (human) (Q14289 whole entry, looked up): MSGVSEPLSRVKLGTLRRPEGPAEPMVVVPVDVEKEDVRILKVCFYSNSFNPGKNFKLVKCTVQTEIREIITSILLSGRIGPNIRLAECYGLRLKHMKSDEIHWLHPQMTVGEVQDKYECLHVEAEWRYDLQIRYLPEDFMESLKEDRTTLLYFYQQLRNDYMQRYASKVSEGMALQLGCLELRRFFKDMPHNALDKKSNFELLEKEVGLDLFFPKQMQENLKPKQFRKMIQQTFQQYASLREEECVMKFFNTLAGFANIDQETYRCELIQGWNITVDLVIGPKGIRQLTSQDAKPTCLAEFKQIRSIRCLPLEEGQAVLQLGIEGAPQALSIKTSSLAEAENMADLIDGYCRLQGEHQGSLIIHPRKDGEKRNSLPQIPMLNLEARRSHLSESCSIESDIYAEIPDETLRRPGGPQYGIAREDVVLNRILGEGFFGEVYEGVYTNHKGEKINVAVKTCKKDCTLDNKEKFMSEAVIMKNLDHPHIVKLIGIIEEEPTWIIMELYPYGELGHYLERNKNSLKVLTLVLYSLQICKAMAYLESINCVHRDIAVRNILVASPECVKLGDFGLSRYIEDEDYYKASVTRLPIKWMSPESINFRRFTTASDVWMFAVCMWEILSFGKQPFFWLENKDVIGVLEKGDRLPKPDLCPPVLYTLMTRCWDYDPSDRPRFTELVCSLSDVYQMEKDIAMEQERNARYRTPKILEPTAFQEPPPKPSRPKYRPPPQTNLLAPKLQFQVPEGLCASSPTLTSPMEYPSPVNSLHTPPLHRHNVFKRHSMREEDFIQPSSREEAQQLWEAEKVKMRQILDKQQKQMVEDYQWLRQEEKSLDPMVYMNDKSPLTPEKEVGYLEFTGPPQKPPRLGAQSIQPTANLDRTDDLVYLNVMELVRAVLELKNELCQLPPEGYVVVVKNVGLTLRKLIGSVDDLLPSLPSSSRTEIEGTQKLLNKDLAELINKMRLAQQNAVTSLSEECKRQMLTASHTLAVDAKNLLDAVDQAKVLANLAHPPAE

[33] = target: ROCK1 (human) (UniProt Q13464)
[34] = target: RPS6KA3 KD1 KD2 (human) (UniProt P51812)
Chain of RPS6KA3 KD1 KD2 (human) (P51812 whole entry, looked up): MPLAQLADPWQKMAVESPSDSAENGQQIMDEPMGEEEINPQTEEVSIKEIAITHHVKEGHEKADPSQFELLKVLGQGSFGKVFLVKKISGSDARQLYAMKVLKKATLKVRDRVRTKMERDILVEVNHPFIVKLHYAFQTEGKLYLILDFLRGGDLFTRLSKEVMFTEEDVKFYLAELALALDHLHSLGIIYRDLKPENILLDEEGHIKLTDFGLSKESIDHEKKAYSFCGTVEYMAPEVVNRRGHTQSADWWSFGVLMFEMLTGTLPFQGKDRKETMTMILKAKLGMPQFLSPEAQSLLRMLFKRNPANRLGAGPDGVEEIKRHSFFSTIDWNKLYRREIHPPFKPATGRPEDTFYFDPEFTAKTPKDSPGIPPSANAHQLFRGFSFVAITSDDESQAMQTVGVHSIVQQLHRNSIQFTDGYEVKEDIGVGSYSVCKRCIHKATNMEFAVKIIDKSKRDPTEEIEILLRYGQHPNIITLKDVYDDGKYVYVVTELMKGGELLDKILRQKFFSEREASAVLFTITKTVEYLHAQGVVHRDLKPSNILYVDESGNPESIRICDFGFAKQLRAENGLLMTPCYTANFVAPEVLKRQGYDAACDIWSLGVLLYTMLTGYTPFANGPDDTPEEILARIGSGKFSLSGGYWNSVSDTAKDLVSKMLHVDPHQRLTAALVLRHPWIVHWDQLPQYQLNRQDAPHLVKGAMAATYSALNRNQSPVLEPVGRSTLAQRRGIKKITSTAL

[35] = target: SLK (human) (UniProt Q9H2G2)
[36] = target: SRPK2 (human) (UniProt P78362)
[37] = target: STK10 (human) (UniProt O94804)
[38] = target: STK33 (human) (UniProt Q9BYT3)
[39] = target: TAOK3 (human) (UniProt Q9H2K8)
[40] = target: TYK2 JH1 catalytic (human) (UniProt P29597)

SMILES	residual activity [1]	residual activity [2]	residual activity [3]	residual activity [5]	residual activity [6]	residual activity [7]	residual activity [8]	residual activity [9]	residual activity [10]	residual activity [11]	residual activity [12]	residual activity [13]	residual activity [14]	residual activity [15]	residual activity [16]	residual activity [17]	residual activity [18]	residual activity [19]	residual activity [20]	residual activity [21]	also measured
CC(=O)c1ccc(N2CCOCC2)cc1O	100%	107%	104%	108%	96.9%	104%	100%	99.3%	99.3%	99.1%	101%	92.8%	93.9%	101%	90.4%	94%	100%	82.6%	108%	99.4%	residual activity [4]: 96.3%; residual activity [22]: 99.4%; residual activity [23]: 116%; residual activity [24]: 99.8%; residual activity [25]: 96.8%; residual activity [26]: 98.6%; residual activity [27]: 93.7%; residual activity [28]: 113%; residual activity [29]: 105%; residual activity [30]: 102%; residual activity [31]: 98.4%; residual activity [32]: 102%; residual activity [33]: 92.9%; residual activity [34]: 101%; residual activity [35]: 105%; residual activity [36]: 98.6%; residual activity [37]: 101%; residual activity [38]: 109%; residual activity [39]: 98.4%; residual activity [40]: 110%
Cc1ccc(S(=O)(=O)/C=C/C#N)cc1	107%	93.7%	97.1%	94.4%	108%	103%	102%	98%	91.4%	97.2%	94.3%	100%	101%	86.1%	104%	108%	93.7%	103%	98.1%	100%	residual activity [22]: 96.2%; residual activity [23]: 130%; residual activity [24]: 102%; residual activity [25]: 74.7%; residual activity [26]: 95.8%; residual activity [27]: 107%; residual activity [28]: 83.2%; residual activity [29]: 103%; residual activity [30]: 93.8%; residual activity [31]: 96.1%; residual activity [32]: 92.8%; residual activity [33]: 93.2%; residual activity [34]: 95.9%; residual activity [35]: 101%; residual activity [36]: 108%; residual activity [37]: 90.6%; residual activity [38]: 87.1%; residual activity [39]: 101%; residual activity [40]: 82.8%
